By inhibition is commonly meant the relative decrease from the control value, in per cent. As a reminder, the IC50 is the concentration that inhibits the measured activity by half. A low value points to greater potency in that assay.

Structures are written as SMILES. Entries after “also recorded” stand apart in the source; their conditions may differ.

The source of these data is patent US5380715A, “Ap4 A as a hypotensive agent” (Fujirebio Inc., priority 1992, dated 1995).

Assay [1] concerns rabbit erythrocytes. As to the kind of experiment: Inhibitory effect on rabbit erythrocyte crenation induced by A23187. The conditions noted are these: for Crenation: x ± SE; for inhibition of A23187-induced erythrocyte crenation: result in words. The assay is classed as cell-based. How it is done:
Fresh blood was collected from Japanese white rabbits weighing 2-3 kg. Blood samples were anticoagulated with citric acid (1 ml 3.8% Citric acid solution+10 ml blood). These samples were centrifuged at room temperature for 15 min at 1100 rpm. After centrifugation of the defibrinated blood, the upper cell layers were discarded. The erythrocytes (pellet) were washed 4 times in a medium containing; 56.6 mM Tris-HCl, pH 7.6, 100 mM NaCl, 4.6 mM KCl,0.64 mM MgCl2. The erythrocytes were preincubated with saline solution or Ap4 A at 37° C for 10min and then A23187 1×10^-6 M and CaCl2 5×10^-7 M were added to the Mixture. After incubation at 37° C. for 20 min, the reaction mixture was centrifugated at 1000 rpm for 10 min. The precipitation was fixed by addition of 0.1M cacodylate buffer containing 0.22M sucrose. The number of transforming erythrocytes was counted using a microscope.

The test system of assay [2] is isolated rat heart. As to the kind of experiment: Protective effect on deoxygenation-induced cardiac damage (Langendorff heart). Also noted: species or system male SD rats. To be noted: 1×10^-4 M, 33 min global ischemia; words. The procedure: The protective effect of Ap4A against ischemia by use of a Langendorff heart (Aronson, CE. and Serlick, ER. Toxicol. Appl. Pharmac. 38, 479-488 (1976)) was tested.
Deoxygenation-induced cardiac damage according to the method of Aronson & Serlich (Toxical. appl. Parmac. 38, 479-488, 1976) with slight modifications. Male SD rats (Charles River Japan Inc.) weighing 320 to 390 g were anesthetized with ether, and heart quickly isolated. The isolated rat heart was mounted and perfused with Krebs-Henselite solution (118 mM NaCl, 4.7 mM KCl, 2.5 mM CaCl2, 1.2 mM MgSO4, 1.2 mM KH2 PO4, 25 mM NaHCO3 and 10 mM glucose) bubbled with 95% O2 +5% CO2 at a flow rates of 14 ml/min. at 37° C. The myocardial function was monitored by the left ventricular pressure (L.V.P.), differential values of L.V.P. (dp/dt), heart rate (H.R.) and perfused pressure (P.P.) through a branch of an aortic canula mounted on the heart. After equilibrate for 40 min., global ischemia was produced by stopping the perfusing solution and the heart was incubated for 33 min. in 50 ml Krebs-Henselite bubble with N2 gas (control). 33 min. later, the buffer solution was removed. The perfusion was re-started, and the myocardial function was measured. The heart was incubated in Krebs-Henselite solution containing Ap4A 1×10^-4 M during global ischemia.

In the case of `Nc1ncnc2c1ncn2[C@@H]1O[C@H](COP(=O)(O)OP(=O)(O)OP(=O)(O)OP(=O)(O)OC[C@H]2O[C@@H](n3cnc4c(N)ncnc43)[C@H](O)[C@@H]2O)[C@@H](O)[C@H]1O` [Ap4A, diadenosine 5',5'"-p^1,p^4 -tetraphosphate], the Crenation is on record as 19.2 ± 9.1% in assay [1] (10^-3 M, P < 0.01 vs control); 37.0 ± 6.4% in assay [1] (10^-4 M, P < 0.05 vs control); 49.1 ± 3.9% in assay [1] (10^-5 M). In assay [1] (Oryctolagus cuniculus, Erythrocyte, 10^-3 M), this molecule returned an inhibition at 1000 µM of 66.1%. Moreover, in assay [1] (Oryctolagus cuniculus, Erythrocyte, 10^-4 M), the inhibition at 100 µM was found to be 34.6%. The same molecule showed an inhibition at 10 µM in assay [1] (Oryctolagus cuniculus, Erythrocyte, 10^-5 M) of 13.3%. This molecule came in with an IC50 in assay [1] (Oryctolagus cuniculus, Erythrocyte, A23187-induced crenation) of 300 µM. For the same molecule, the results for the “inhibition of A23187-induced erythrocyte crenation” value in assay [1] and in assay [1] (listed as Ap4 A) were “significant inhibitory effect” and “A23187-induced rabbit erythrocyte crenation was inhibited”, respectively. For the same molecule, the “prevention of cardiac damage (loss of L.V.P., dp/dt and H.R.)” value in assay [2] is “significantly prevented cardiac damage (loss of L.V.P., dp/dt and H.R.) induced by deoxygenation; also recorded: the above-mentioned impairment in the untreated Langendorff heart was found to be prevented”.
